In ChEMBL document CHEMBL4177665, “Inhibitory effect of moschamine isolated from Carthamus tinctorius on LPS-induced inflammatory mediators via AP-1 and STAT1/3 inactivation in RAW 264.7 macrophages” (Bioorg Med Chem Lett, 2017):
Activity calls are given as the source filed them. The rule behind the calls is not given here.

Legend:
RAW264.7 [1] = test: Antiinflammatory activity in mouse RAW264.7 cells assessed as inhibition of LPS-induced PGE2 production pretreated for 1 hr followed by LPS addition measured after 24 hrs; type: functional, cell-based
RAW264.7 [2] = test: Antiinflammatory activity in mouse RAW264.7 cells assessed as inhibition of LPS-induced nitric oxide production measured after 24 hrs by Griess assay; type: functional, cell-based; details: RAW264.7, 24 h
RAW264.7 [3] = test: Cytotoxicity against mouse RAW264.7 cells assessed as reduction in cell viability up to 200 uM measured after 24 hrs in presence of LPS by MTT assay; type: cell-based; details: raw264.7, 24 h
RAW264.7 [4] = test: Cytotoxicity against mouse RAW264.7 cells assessed as reduction in cell viability up to 200 uM measured after 24 hrs in absence of LPS by MTT assay; type: cell-based; details: raw264.7, 24 h
RAW264.7 [5] = test: Antiinflammatory activity in mouse RAW264.7 cells assessed as inhibition of LPS-induced nitric oxide production pretreated for 1 hr followed by LPS stimulation measured after 24 hrs by Griess assay; type: functional, cell-based
RAW264.7 [6] = test: Antiinflammatory activity in mouse RAW264.7 cells assessed as inhibition of LPS-stimulated COX2 expression at 12.5 to 50 uM pretreated for 1 hr followed by LPS-stimulation measured after 12 hrs by Western blot analysis; type: functional, cell-based
RAW264.7 [7] = test: Antiinflammatory activity in mouse RAW264.7 cells assessed as inhibition of LPS-stimulated IL-6 production in mouse RAW264.7 cells at 50 uM pretreated for 1 hr followed by LPS addition measured after 24 hrs by enzyme immunoassay relative to control; type: functional
RAW264.7 [8] = test: Inhibition of LPS-induced ERK phosphorylation in mouse RAW264.7 cells at 50 uM pretreated for 1 hr followed by LPS-stimulation measured up to 30 mins by Western blot analysis; type: cell-based
RAW264.7 [9] = test: Antiinflammatory activity in mouse RAW264.7 cells assessed as inhibition of LPS-stimulated mPGES1 mRNA expression at 50 uM measured up to 12 hrs by SYBR green dye based RT-PCR analysis; type: functional, cell-based
[10] = biological target: Transcription factor Jun (Homo sapiens) (UniProt P05412); test: Inhibition of AP1 (unknown origin) expressed in LPS-stimulated mouse RAW264.7 cells at 12.5 to 50 uM pretreated for 1 hr followed by LPS-stimulation measured after 18 hrs by luciferase reporter gene assay; type: cell-based
Chain of Transcription factor Jun (Homo sapiens) (P05412 whole entry): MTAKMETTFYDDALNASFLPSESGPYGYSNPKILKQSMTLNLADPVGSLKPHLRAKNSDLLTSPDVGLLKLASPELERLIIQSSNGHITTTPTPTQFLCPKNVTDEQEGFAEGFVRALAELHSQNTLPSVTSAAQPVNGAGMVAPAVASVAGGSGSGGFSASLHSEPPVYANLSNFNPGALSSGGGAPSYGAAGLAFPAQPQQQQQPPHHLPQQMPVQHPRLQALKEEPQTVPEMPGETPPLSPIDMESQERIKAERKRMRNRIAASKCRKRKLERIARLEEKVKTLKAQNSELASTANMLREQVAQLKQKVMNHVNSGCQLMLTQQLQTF

RAW264.7 [11] = test: Inhibition of LPS-induced JNK phosphorylation in mouse RAW264.7 cells at 50 uM pretreated for 1 hr followed by LPS-stimulation measured up to 30 mins by Western blot analysis; type: cell-based
RAW264.7 [12] = test: Antiinflammatory activity in mouse RAW264.7 cells assessed as inhibition of LPS-stimulated iNOS mRNA expression at 50 uM measured up to 12 hrs by SYBR green dye based RT-PCR analysis; type: functional, cell-based
RAW264.7 [13] = test: Antiinflammatory activity in mouse RAW264.7 cells assessed as inhibition of LPS-stimulated iNOS expression at 12.5 to 50 uM pretreated for 1 hr followed by LPS-stimulation measured after 12 hrs by Western blot analysis; type: functional, cell-based
RAW264.7 [14] = test: Antiinflammatory activity in mouse RAW264.7 cells assessed as inhibition of LPS-stimulated IL-6 production pretreated for 1 hr followed by LPS addition measured after 24 hrs by enzyme immunoassay; type: functional, cell-based
RAW264.7 [15] = test: Inhibition of LPS-induced c-JUN expression in mouse RAW264.7 cells at 50 uM pretreated for 1 hr followed by LPS-stimulation measured up to 30 mins by Western blot analysis; type: functional, cell-based
RAW264.7 [16] = test: Inhibition of LPS-induced c-FOS expression in mouse RAW264.7 cells at 50 uM pretreated for 1 hr followed by LPS-stimulation measured after 15 mins by Western blot analysis; type: functional, cell-based
[17] = biological target: Tyrosine-protein kinase JAK1 (Mus musculus) (UniProt P52332); test: Inhibition of JAK1 in LPS-stimulated mouse RAW264.7 cells assessed as reduction in STAT3 phosphorylation at […] residue pretreated for 1 hr followed by LPS-stimulation by Western blot analysis; type: cell-based
Chain of Tyrosine-protein kinase JAK1 (Mus musculus) (P52332 whole entry): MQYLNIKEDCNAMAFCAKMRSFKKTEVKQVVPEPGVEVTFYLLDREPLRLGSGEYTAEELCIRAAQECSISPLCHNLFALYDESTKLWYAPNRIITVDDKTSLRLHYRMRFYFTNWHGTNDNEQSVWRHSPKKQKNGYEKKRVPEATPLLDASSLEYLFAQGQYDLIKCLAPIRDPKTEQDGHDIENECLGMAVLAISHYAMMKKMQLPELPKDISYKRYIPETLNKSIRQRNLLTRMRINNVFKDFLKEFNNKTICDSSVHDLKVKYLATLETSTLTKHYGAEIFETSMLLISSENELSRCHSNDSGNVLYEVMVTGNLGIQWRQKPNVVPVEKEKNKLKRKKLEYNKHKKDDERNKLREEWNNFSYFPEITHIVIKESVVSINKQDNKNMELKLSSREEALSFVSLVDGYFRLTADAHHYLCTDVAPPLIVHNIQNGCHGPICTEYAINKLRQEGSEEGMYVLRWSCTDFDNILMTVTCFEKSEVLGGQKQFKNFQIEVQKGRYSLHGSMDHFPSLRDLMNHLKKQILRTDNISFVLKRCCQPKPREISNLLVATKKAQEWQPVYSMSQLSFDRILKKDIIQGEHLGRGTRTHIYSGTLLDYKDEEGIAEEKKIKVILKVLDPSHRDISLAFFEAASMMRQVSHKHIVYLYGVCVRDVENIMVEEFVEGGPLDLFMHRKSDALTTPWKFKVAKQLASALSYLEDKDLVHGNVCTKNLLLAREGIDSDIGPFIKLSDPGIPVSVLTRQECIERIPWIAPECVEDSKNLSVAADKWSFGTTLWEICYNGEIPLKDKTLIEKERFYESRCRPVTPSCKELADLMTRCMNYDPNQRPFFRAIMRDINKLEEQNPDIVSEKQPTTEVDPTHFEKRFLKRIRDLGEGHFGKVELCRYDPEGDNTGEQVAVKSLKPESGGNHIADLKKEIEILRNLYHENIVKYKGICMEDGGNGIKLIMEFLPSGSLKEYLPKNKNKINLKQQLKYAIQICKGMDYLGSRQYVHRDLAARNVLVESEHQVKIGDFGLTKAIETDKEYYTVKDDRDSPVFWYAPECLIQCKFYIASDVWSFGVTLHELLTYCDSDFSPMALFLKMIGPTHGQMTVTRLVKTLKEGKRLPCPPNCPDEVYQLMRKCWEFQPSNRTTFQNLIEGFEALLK

RAW264.7 [18] = test: Antiinflammatory activity in mouse RAW264.7 cells assessed as inhibition of LPS-stimulated IL-6 mRNA expression at 50 uM measured up to 6 hrs by SYBR green dye based RT-PCR analysis; type: functional, cell-based
[19] = biological target: Tyrosine-protein kinase JAK1 (Mus musculus) (UniProt P52332); test: Inhibition of JAK1 in LPS-stimulated mouse RAW264.7 cells assessed as reduction in STAT1 phosphorylation at S727 residue pretreated for 1 hr followed by LPS-stimulation by Western blot analysis; type: cell-based
RAW264.7 [20] = test: Inhibition of NFKappaB (unknown origin) expressed in LPS-stimulated mouse RAW264.7 cells by luciferase reporter gene assay; type: cell-based; details: Homo sapiens
[21] = biological target: MAP kinase p38 (Mus musculus) (UniProt P47811+O08911+Q9WUI1+Q9Z1B7); test: Inhibition of LPS-induced p38 phosphorylation in mouse RAW264.7 cells at 50 uM pretreated for 1 hr followed by LPS-stimulation measured up to 30 mins by Western blot analysis; type: cell-based
RAW264.7 [22] = test: Antiinflammatory activity in mouse RAW264.7 cells assessed as inhibition of LPS-stimulated IL1beta production in mouse RAW264.7 cells pretreated for 1 hr followed by LPS addition measured after 24 hrs by enzyme immunoassay; type: functional, cell-based
[23] = biological target: Protein c-Fos (Mus musculus) (UniProt P01101); test: Inhibition of LPS-induced c-FOS phosphorylation in mouse RAW264.7 cells at 50 uM pretreated for 1 hr followed by LPS-stimulation measured after 15 mins by Western blot analysis; type: cell-based
Chain of Protein c-Fos (Mus musculus) (P01101 whole entry): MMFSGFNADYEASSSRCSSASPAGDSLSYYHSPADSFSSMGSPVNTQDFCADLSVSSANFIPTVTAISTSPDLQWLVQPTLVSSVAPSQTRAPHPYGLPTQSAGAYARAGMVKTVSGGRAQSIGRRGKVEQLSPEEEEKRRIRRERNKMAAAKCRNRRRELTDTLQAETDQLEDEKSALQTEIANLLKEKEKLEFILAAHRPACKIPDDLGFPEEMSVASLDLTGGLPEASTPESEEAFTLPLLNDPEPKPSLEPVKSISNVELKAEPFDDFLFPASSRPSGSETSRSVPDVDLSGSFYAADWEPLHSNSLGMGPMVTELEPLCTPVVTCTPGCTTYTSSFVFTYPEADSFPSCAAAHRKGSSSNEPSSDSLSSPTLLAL

RAW264.7 [24] = test: Antiinflammatory activity in mouse RAW264.7 cells assessed as inhibition of LPS-stimulated mPGES1 expression at 12.5 to 50 uM pretreated for 1 hr followed by LPS-stimulation measured after 12 hrs by Western blot analysis; type: functional, cell-based
RAW264.7 [25] = test: Antiinflammatory activity in mouse RAW264.7 cells assessed as inhibition of LPS-stimulated IL1beta mRNA expression at 50 uM measured up to 6 hrs by SYBR green dye based RT-PCR analysis; type: functional, cell-based
RAW264.7 [26] = test: Antiinflammatory activity in mouse RAW264.7 cells assessed as inhibition of LPS-stimulated COX2 mRNA expression at 50 uM measured up to 12 hrs by SYBR green dye based RT-PCR analysis; type: functional, cell-based
[27] = biological target: Transcription factor Jun (Mus musculus) (UniProt P05627); test: Inhibition of LPS-induced c-JUN phosphorylation in mouse RAW264.7 cells at 50 uM pretreated for 1 hr followed by LPS-stimulation measured up to 30 mins by Western blot analysis; type: cell-based
Chain of Transcription factor Jun (Mus musculus) (P05627 whole entry): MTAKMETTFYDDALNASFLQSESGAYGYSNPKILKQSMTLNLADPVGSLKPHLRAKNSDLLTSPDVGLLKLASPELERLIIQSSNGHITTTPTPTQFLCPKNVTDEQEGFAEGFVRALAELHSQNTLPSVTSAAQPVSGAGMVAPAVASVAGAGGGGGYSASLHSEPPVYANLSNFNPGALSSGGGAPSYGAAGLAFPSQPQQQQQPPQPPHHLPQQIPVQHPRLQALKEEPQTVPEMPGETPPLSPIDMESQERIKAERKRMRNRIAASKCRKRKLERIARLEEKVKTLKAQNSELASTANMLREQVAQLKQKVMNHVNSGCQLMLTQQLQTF

RAW264.7 [28] = test: Antiinflammatory activity in mouse RAW264.7 cells assessed as inhibition of LPS-stimulated IL1beta production in mouse RAW264.7 cells at 50 uM pretreated for 1 hr followed by LPS addition measured after 24 hrs by enzyme immunoassay relative to control; type: functional
[29] = biological target: Tyrosine-protein kinase JAK1 (Mus musculus) (UniProt P52332); test: Inhibition of JAK1 in LPS-stimulated mouse RAW264.7 cells assessed as reduction in STAT1 phosphorylation at Y701 residue pretreated for 1 hr followed by LPS-stimulation by Western blot analysis; type: cell-based

COc1cc(/C=C/C(=O)NCCc2c[nH]c3ccc(O)c(-c4c(O)ccc5[nH]cc(CCNC(=O)/C=C/c6ccc(O)cc6)c45)c23)ccc1O
IC50 (RAW264.7 [1]): > 100 µM | IC50 (RAW264.7 [2]): > 200 µM | Activity (RAW264.7 [3]): Non-Toxic | Activity (RAW264.7 [4]): Non-Toxic

CC(=O)OC[C@H]1O[C@@H](O[C@H](C)[C@H]2C[C@H](O)[C@H]3[C@@H]4CCC5=CC(=O)CC[C@]5(C)[C@H]4CC[C@@]32C)[C@H](O)[C@@H](O)[C@@H]1O[C@@H]1O[C@H](CO)[C@@H](O)[C@H](O)[C@H]1O
IC50 (RAW264.7 [1]): > 100 µM | IC50 (RAW264.7 [2]): > 200 µM | Activity (RAW264.7 [3]): Non-Toxic | Activity (RAW264.7 [4]): Non-Toxic

COc1cc(/C=C/C(=O)NCCc2c[nH]c3ccc(O)c(-c4c(O)ccc5[nH]cc(CCNC(=O)/C=C/c6ccc(O)c(OC)c6)c45)c23)ccc1O
IC50 (RAW264.7 [1]): > 100 µM | IC50 (RAW264.7 [2]): > 200 µM | Activity (RAW264.7 [3]): Non-Toxic | Activity (RAW264.7 [4]): Non-Toxic

O=C(/C=C/c1ccc(O)cc1)NCCc1c[nH]c2ccc(O[C@@H]3O[C@H](CO)[C@@H](O)[C@H](O)[C@H]3O)cc12
IC50 (RAW264.7 [1]): 89.8 µM | IC50 (RAW264.7 [2]): 135 µM | Activity (RAW264.7 [3]): Non-Toxic | Activity (RAW264.7 [4]): Non-Toxic

COc1ccc(C[C@H]2COC(=O)[C@]2(O)Cc2ccc(O[C@@H]3O[C@H](CO)[C@@H](O)[C@H](O)[C@H]3O)c(OC)c2)cc1OC
IC50 (RAW264.7 [1]): > 100 µM | IC50 (RAW264.7 [2]): > 200 µM | Activity (RAW264.7 [3]): Non-Toxic | Activity (RAW264.7 [4]): Non-Toxic

O=C(/C=C/c1ccc(O)cc1)NCCc1c[nH]c2ccc(O)c(-c3c(O)ccc4[nH]cc(CCNC(=O)/C=C/c5ccc(O)cc5)c34)c12
IC50 (RAW264.7 [1]): > 100 µM | IC50 (RAW264.7 [2]): > 200 µM | Activity (RAW264.7 [3]): Non-Toxic | Activity (RAW264.7 [4]): Non-Toxic

COc1cc(C[C@@H](CO)[C@H](CO)Cc2ccc(O)c(OC)c2)ccc1O [(+)-SECOISOLARICIRESINOL]
IC50 (RAW264.7 [1]): > 100 µM | IC50 (RAW264.7 [2]): > 200 µM | Activity (RAW264.7 [3]): Non-Toxic | Activity (RAW264.7 [4]): Non-Toxic

CC(=N)NCCCC[C@H](N)C(=O)O [L-NIL]
IC50 (RAW264.7 [2]): 28.3 µM

COc1cc(/C=C/C(=O)NCCc2c[nH]c3ccc(O)cc23)ccc1O [N-FERULOYL SEROTONIN]
inhibition (RAW264.7 [5]): Dose-dependent effect | inhibition (RAW264.7 [6]): Active | inhibition at 50 µM (RAW264.7 [7]): 25.1% | inhibition (RAW264.7 [8]): Active | inhibition (RAW264.7 [9]): Active | inhibition [10]: Active | inhibition (RAW264.7 [11]): inactive | IC50 (RAW264.7 [1]): 14.7 µM | inhibition (RAW264.7 [1]): Dose-dependent effect | inhibition (RAW264.7 [12]): Active | inhibition (RAW264.7 [13]): Active | IC50 (RAW264.7 [2]): 123 µM | inhibition (RAW264.7 [14]): Dose-dependent effect | inhibition (RAW264.7 [15]): inactive | inhibition (RAW264.7 [16]): Active | inhibition [17]: Dose-dependent effect | Activity (RAW264.7 [3]): Non-Toxic | inhibition (RAW264.7 [18]): Active | inhibition [19]: Dose-dependent effect | inhibition (RAW264.7 [20]): inactive | inhibition [21]: Active | inhibition (RAW264.7 [22]): Dose-dependent effect | inhibition [23]: Active | inhibition (RAW264.7 [24]): Active | inhibition (RAW264.7 [25]): Active | inhibition (RAW264.7 [26]): Active | inhibition [27]: inactive | Activity (RAW264.7 [4]): Non-Toxic | inhibition at 50 µM (RAW264.7 [28]): 52.2% | inhibition [29]: Dose-dependent effect

O=C(/C=C/c1ccc(O)cc1)NCCc1c[nH]c2ccc(O)cc12 [N-P-COUMAROYL SEROTONIN]
IC50 (RAW264.7 [1]): 43.2 µM | IC50 (RAW264.7 [2]): 164 µM | Activity (RAW264.7 [3]): Non-Toxic | Activity (RAW264.7 [4]): Non-Toxic
